Source: US9259006B2, “Antimicrobial compositions and methods of use thereof” (priority 2008, dated 2016)
Read-outs that look alike come from different tables or passages of the source.

How the values were obtained:
[1] = system: E. Coli (ATCC 43888); assay type: cell-based; conditions: inoculum 6.87-log, about 33° F.
[2] = Hypochlorous acid stability and shelf life, DPD assay (Table 10, FIG. 1); assay type: physicochemical
[3] = Spinach leaf 25 grams, 180 min.

Molecule	Antimicrobial activity (log reduction) of single components ([1]; Spinach leaf 25 grams, 2 min.) [log]	Antimicrobial activity (log reduction) of single components ([1]; Spinach leaf 25 grams, 30 min.) [log]	Antimicrobial activity (log reduction) of single components [1, 3] [log]	Antimicrobial activity (log reduction) of single components ([1]; Strawberry 25 grams, 2 min.) [log]	Antimicrobial activity (log reduction) of single components ([1]; Strawberry 25 grams, 30 min.) [log]	Antimicrobial activity (log reduction) of single components ([1]; Strawberry 25 grams, 180 min.) [log]	level of hypochlorous acid in solution ([2]; in the absence of diol at pH 7) [%]	level of hypochlorous acid in solution ([2]; in the presence of diol at pH 4, at about 4 hours) [%]
O=[O+][O-] [Ozone (0.001 wgt. %), Ozone]	2.34	2.58	3.63	2.89	3.12	4.12	–	–
OCl [hypochlorous acid]	–	–	–	–	–	–	100	0
BrBr [Bromine (0.08 wgt. %), Bromine]	2.11	3.28	4.44	2.32	3.32	4.89	–	–
Octyl Phenol Ethoxylate [Octyl Phenol Ethoxylate (0.5 wgt. %)]	1.15	2.47	3.11	1.05	2.78	3.9	–	–
